Entries after “also recorded” stand apart in the source; their conditions may differ.
Legend:
PBT-05 cells [1] = experiment: In vitro chemotaxis assay (Incucyte transwell); type: cell-based, human; settings: patient-derived pHGG line PBT-05
Description: Locally delivered therapeutics in the brain may need to account for the tendency of remnant brain tumor cells to migrate away from the tumor margins—potentially out of reach locally delivered therapeutics. Here, artificial gradients of chemokines were used to lure tumor cells and phagocytic cells in the brain towards a static “trap” of macrophage-enhancing therapeutics to facilitate tumor cell elimination. Referring to FIGS. 4A-4D, to model this, a patient-derived, pediatric high grade glioma (pHGG) line, PBT-05, was used. […] In vitro chemotaxis assays were carried out with PBT-05 against a panel of classical chemokines cited in literature as potentially being potent against migratory brain tumor cells. […] Without wishing to be bound by theory, it is believed that PBT-05's attraction towards hCCL2 gradients may be mediated by another receptor promiscuous with this chemokine. While this receptor was not identified, mCCL2 may not bind to it or produce the same downstream signaling. However, its chemotactic sensitivity to human and murine CXCL12 may be mediated by the canonical pathway.
Chemokines were purchased from: Sigma-Aldrich (CCL2: SRP3109) and RnD Systems (CXCL12: 350-NS/CF). Cell migration assays were performed using the chemotaxis module on the Incucyte Zoom 2016 and S3 (Essen Bio). Specialized 96 well transwell plates and reservoir dishes were supplied by the manufacturer (cat no's 4582, 4600). H2B-GFP+ PBT05 lines cells were cultured in the Neuralcult media+supplement without EGF/FGF to reduce background mobility caused by these growth factors. The Incucyte software was tailored to identify GFP+ nuclei to count the number of tumor cells on top and bottom of the transwell membranes.

[2] = target: CD47 on PBT-05 patient-derived pediatric high grade glioma cells (human) (UniProt Q08722); experiment: cell-based or functional assay
PBT-05 cells [3] = experiment: In vitro phagocytosis assay, PBT-05 co-culture with murine bone marrow derived macrophages (BMDM); type: cell-based, human; settings: for contribution to tumor cell cytotoxicity when added to CD47 blockade: murine macrophage co-cultures, compared with CD47 blockade alone; for effect on viability of tumor cells in co-culture: polarizing agent without CD47mAb
Description: These cultures were challenged with combinations of macrophage checkpoint inhibitors (MCIs) and immune cell polarizing factors described by literature as capable of promoting an immune response against tumor cells. […] Compared to a media control, no combination of MCIs and polarizing factors caused significant cytotoxicity of PBT-05 cells cultured alone, confirming the observed cytotoxic effect is mediated by the macrophages, not the drugs themselves.
Murine monocytes were harvested and cultured from femurs of C57BL/6 mice using RPMI (Thermofisher, 11875093) containing 10% heat deactivated FBS and 100 ng/mL mCSF1 for 7 days. Mature macrophages from these cultures were later harvested for experiments. Human monocytes were isolated from human PBMCs (Bloodworks) and purified by EasySep monocyte depletion kit (StemCell, 19355). Monocytes were cultured in RPMI containing 10% heat deactivated FBS and 25 ng/mL human CSF1 for 10 days. 50 ng/mL IL-10 was added to the cultures at day 5 to induce M2 phenotypes. Mature macrophages were later harvested for use in experiments.
Monoclonal antibodies were purchased from Bioxcell (LEAF hCD47, BE0019) and Biolegend (LEAF hCD24mAb: 101810, MsIgG1: 400153). Phagocytosis assays were performed using the Basic Analyzer software on Essen Bio's Incucyte Zoom and Incucyte S3. 12 or 24 well plates were seeded 1:1 with GFP+ tumor lines and macrophages (murine/human) in fully supplemented Neuralcult plus various MCIs and immunomodulators described previously. Using the aforementioned definitions, the Incucyte calculated tumor cell counts based on the number of GFP+ nuclei in the wells over time.

human GB line = settings: CXCR4 blocked; cited from earlier work

Chain of UniProt Q08722 (Q08722 19-323): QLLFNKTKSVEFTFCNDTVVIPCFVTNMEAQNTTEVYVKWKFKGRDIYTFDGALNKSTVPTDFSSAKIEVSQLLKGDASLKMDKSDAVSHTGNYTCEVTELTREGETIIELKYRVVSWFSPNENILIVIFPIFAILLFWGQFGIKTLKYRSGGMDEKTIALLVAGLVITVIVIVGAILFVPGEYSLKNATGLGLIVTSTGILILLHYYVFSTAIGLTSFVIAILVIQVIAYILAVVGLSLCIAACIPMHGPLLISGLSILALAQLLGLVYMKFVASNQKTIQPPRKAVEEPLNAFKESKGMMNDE

CXCL12: classical chemokine, ligand of CXCR4, purchased from RnD Systems (350-NS/CF)
chemotaxis of PBT-05 cells (chemotactic potency) (PBT-05 cells [1]): effective at eliciting chemotaxis; also recorded: induced varying degrees of chemotaxis; also recorded: effective at eliciting migration; also recorded: effectively chemoattract; also recorded: varying sensitivity

LEAF hCD47 monoclonal antibody (Bioxcell, BE0019)
phagocytosis of PBT-05 cells by murine and human macrophages in co-culture (tumor cell count); antibody concentration that was effective [2]: 1 µg/mL

mCCL2: murine version of the chemokine CCL2
chemotaxis of PBT-05 cells (chemotactic potency) (PBT-05 cells [1]): unresponsive

CCOCc1nc2c(N)nc3ccccc3c2n1CC(C)(C)O [R848, reference compound]
contribution to tumor cell cytotoxicity when added to CD47 blockade (PBT-05 cells [3]): did not significantly contribute to tumor cell cytotoxicity; also recorded: did not significantly increase cytotoxicity
effect on viability of tumor cells in co-culture (PBT-05 cells [3]): mild effects

c1cc(CN2CCCNCCNCCCNCC2)ccc1CN1CCCNCCNCCCNCC1 [AMD3100]
chemotaxis towards gradients of CXCL12 (human GB line): reduced chemotaxis

hCCL2: human CCL2 chemokine
chemotaxis of PBT-05 cells (chemotactic potency) (PBT-05 cells [1]): greatest potency of the chemokines tested

CCL2: classical chemokine, purchased from Sigma-Aldrich (SRP3109)
chemotaxis of PBT-05 cells (chemotactic potency) (PBT-05 cells [1]): induced varying degrees of chemotaxis; also recorded: varying sensitivity

mCXCL12: murine CXCL12 chemokine
chemotaxis of PBT-05 cells (chemotactic potency) (PBT-05 cells [1]): lost some potency

B1: IFNg: polarizing agent (cytokine) that induces activated phenotypes in macrophages (protein, UniProt P01579 24-161, looked up)
Interferon gamma: QDPYVKEAENLKKYFNAGHSDVADNGTLFLGILKNWKEESDRKIMQSQIVSFYFKLFKNFKDDQSIQKSVETIKEDMNVKFFNSNKKKRDDFEKLTNYSVTDLNVQRKAIHELIQVMAELSPAAKTGKRKRSQMLFRG
contribution to tumor cell cytotoxicity when added to CD47 blockade (PBT-05 cells [3]): did not significantly contribute to tumor cell cytotoxicity; also recorded: did not significantly increase cytotoxicity
effect on viability of tumor cells in co-culture (PBT-05 cells [3]): mild effects
